Source: US20220389008A1, “4-QUINOLINONE ANTIBACTERIAL COMPOUNDS” (Janssen Sciences Ireland Unlimited Company, priority 2019, published 2022)
Read-outs that look alike come from different tables or passages of the source.

Legend:
[1] = system: Mycobacterium tuberculosis (strain H37Ra), cyt bd; settings: Mtb H37Ra; for (i) % OCR after cyt bd inhibitor: test compound 10 μM added after Compound X 0.9 μM; for (ii) % OCR after cccp: test compound 10 μM after Compound X 0.9 μM, then CCCP 1 μM
[2] = system: Mycobacterium tuberculosis strain H37Rv ΔctaE-ΔqcrCAB; assay: microbe, parasite or virus in culture; type: cell-based; settings: 240 h
[3] = system: Mitochondrial toxicity (Glu/Gal); assay: Mitochondrial toxicity (Glu/Gal) assay; type: cell-based; set-up: key to Score: “negative” means that in the test, it was found to have low mitotoxicity (and hence no mitotoxicity alerts); “positive” means that there were some mitotoxicity alerts; “inconclusive” means that no accurate conclusion could be drawn; settings: for Score: mitotoxicity score; for Δ IC50,glu/IC50,gal: ratio glu/gal
From the text: The compounds of the invention/examples may have advantages associated with in vitro potency, kill kinetics (i.e. bactericidal effect) in vitro, PK properties, food effect, safety/toxicity (including liver toxicity, coagulation, 5-LO oxygenase), metabolic stability, Ames II negativity, MNT negativity, aqueous based solubility (and ability to formulate) and/or cardiovascular effect e.g. on animals (e.g. anesthetized guinea pig). The data below that was generated/calculated may be obtained using standard methods/assays, for instance that are available in the literature or which may be performed by a supplier (e.g. Microsomal Stability Assay—Cyprotex, Mitochondrial toxicity (Glu/Gal) assay—Cyprotex, as well as literature CYP cocktail inhibition assays).

[4] = galactose medium, read-out: IC50, gal
[5] = glucose medium, read-out: IC50, glu

Compound	(i) % OCR after cyt bd inhibitor [1]	(ii) % OCR after cccp [1]	IC50 [2] [µM]	IC50 [3, 4] [µM]	IC50 [3, 5] [µM]	Score [3]	Δ IC50,glu/IC50,gal [3]
Cc1c(-c2nc3ccc(-c4ccc(C(F)(F)F)s4)cn3n2)[nH]c2ccccc2c1=O [Compound 11]	62.79%	69.17%	2.6	–	–	–	–
Cc1c(-c2nc3ccc(Cl)cn3n2)[nH]c2ccccc2c1=O [Compound 74]	86.4%	173.3%	> 100	121	135	negative	[x]l.ll
Cc1c(-c2nc3ccc(-c4c[nH]nn4)cn3n2)[nH]c2ccccc2c1=O [Compound 60]	114.505%	155.065%	> 50	100	100	negative	[x]0
Cc1c(-c2nc3ccc(-c4cccc(CC(F)F)c4)cn3n2)[nH]c2ccccc2c1=O [Compound 112]	31,36%	38,59%	1.85	–	–	–	–
COc1cc2[nH]c(-c3nc4ccc(Br)cn4n3)c(C)c(=O)c2cc1OC [Compound 73]	105.2%	171.2%	> 100	100	100	negative	[x]0
Cc1ccc(-c2ccc3nc(-c4[nH]c5ccccc5c(=O)c4C)nn3c2)cc1F [Compound 124]	31,72%	37,02%	1.69	200	200	negative	[x]0
Cc1cc(F)cc(-c2ccc3nc(-c4[nH]c5ccccc5c(=O)c4C)nn3c2)c1 [Compound 86]	32,57%	39,44%	1.32	50	50	negative	[x]0
Cc1c(Cc2nc3ccc(-c4ccc(OC(F)(F)F)cc4)cn3n2)[nH]c2ccccc2c1=O [Compound 67]	99.28%	161.97%	10.3	0.39	30	positive	[x]76.87
Cc1c(-c2nc3ccc(-c4cc(F)cc(F)c4)cn3n2)[nH]c2ccccc2c1=O [Compound 88]	–	76%	5.35	–	–	–	–
Cc1c(-c2nc3ccc(-c4ccc(OC(F)(F)F)cc4)cn3n2)[nH]c2c(F)cc(F)cc2c1=O [Compound 64]	109.65%	158.95%	–	–	–	–	–
Cc1c(-c2nc3ccc(N4CCC(C(F)(F)F)CC4)cn3n2)[nH]c2ccccc2c1=O [Compound 47]	99.34%	141.23%	–	–	–	–	–
Cc1c(-c2nc3ccc(-c4ccc(F)cc4)cn3n2)[nH]c2ccccc2c1=O [Compound 36]	88.6%	130.6%	–	–	–	–	–
COc1cccc(-c2ccc3nc(-c4[nH]c5ccccc5c(=O)c4C)nn3c2)c1 [Compound 89]	55,82%	62,29%	0.574	–	–	–	–
Cc1c(-c2nc3ccc(-c4nc(C(F)(F)F)ns4)cn3n2)[nH]c2ccccc2c1=O [Compound 38]	95.63%	132.88%	4.88	–	–	–	–
Cc1c(-c2nc3ccc(N4CCOCC4)cn3n2)[nH]c2ccccc2c1=O [Compound 54]	–	–	5.94	–	–	–	–
Cc1c(-c2nc3ccc(-c4ncc(C(F)(F)F)s4)cn3n2)[nH]c2ccccc2c1=O [Compound 37]	93.8%	132.68%	–	–	–	–	–
COc1cc2c(=O)c(C)c(-c3nc4ccc(-c5ccc(OC(F)(F)F)cc5)cn4n3)[nH]c2cc1Cl [Compound 78]	135.74%	178.3%	–	–	–	–	–
Cc1c(-c2cn3cc(-c4ccc(OC(F)(F)F)cc4)ccc3n2)[nH]c2ccccc2c1=O [Compound 35]	102.9%	129.2%	2.39	–	–	–	–

Compound	(i) % OCR after cyt bd inhibitor [1]	(ii) % OCR after cccp [1]	IC50 [2] [µM]	IC50 [3, 4] [µM]	IC50 [3, 5] [µM]	Score [3]	Δ IC50,glu/IC50,gal [3]
Cc1c(-c2nc3ccc(-c4nc(C(F)(F)F)nn4C)cn3n2)[nH]c2ccccc2c1=O [Compound 49]	101.3%	143.58%	> 50	–	–	–	–
COc1ccc(-c2ccc3nc(-c4[nH]c5ccccc5c(=O)c4C)nn3c2)cc1F [Compound 98]	54,17%	73,86%	1.98	–	–	–	–
Cc1c(-c2nc3ccc(-c4ccc(OC(F)(F)F)cc4)cn3n2)[nH]c2ccc(F)cc2c1=O [Compound 3]	28.75%	38.75%	–	–	–	–	–
Cc1c(-c2nc3ccc(-c4nnc(C(F)(F)F)s4)cn3n2)[nH]c2ccccc2c1=O [Compound 59]	107.31%	154.34%	–	–	–	–	–
Cc1c(-c2nc3ccc(-c4ccc(F)c(F)c4)cn3n2)[nH]c2ccccc2c1=O [Compound 10]	43.4%	63.9%	–	–	–	–	–
Cc1noc(-c2ccc3nc(-c4[nH]c5ccccc5c(=O)c4C)nn3c2)n1 [Compound 17]	98.64%	97.68%	> 5	–	–	–	–
Cc1c(-c2nc3ccc(-c4ccnn4C)cn3n2)[nH]c2ccccc2c1=O [Compound 116]	72,01%	85,87%	4.59	–	–	–	–
Cc1ccc(-c2ccc3nc(-c4[nH]c5ccccc5c(=O)c4C)nn3c2)o1 [Compound 91]	49,11%	56,23%	1.74	–	–	–	–
COc1cc2[nH]c(-c3nc4ccc(-c5ccc(OC(F)(F)F)cc5)cn4n3)c(C)c(=O)c2cc1Cl [Compound 69]	150.98%	165.1%	–	–	–	–	–
Cc1csc(-c2ccc3nc(-c4[nH]c5ccccc5c(=O)c4C)nn3c2)n1 [Compound 71]	95.71%	167.55%	> 10	–	–	–	–
CNC(=O)c1c(-c2nc3ccc(-c4ccc(OC(F)(F)F)cc4)cn3n2)[nH]c2ccccc2c1=O [Compound 50]	114.33%	144.07%	–	86.5	100	negative	[x]1.16
Cc1c(-c2nc3ccc(-c4cn(C)nn4)cn3n2)[nH]c2ccccc2c1=O [Compound 76]	111.72%	175.05%	> 5	–	–	–	–
Cc1c(-c2nc3ccc(N4CCCC(C(F)(F)F)C4)cn3n2)[nH]c2ccccc2c1=O (stereo not shown) [Compound 9]	58.71%	62.22%	1.31	–	–	–	–
C/C=C(\C=C/C1=NC(c2[nH]c3ccccc3c(=O)c2C)=NC(CC)C1)c1ccc(OC)c(OC)c1 (stereo not shown) [Compound 120]	59,83%	89,24%	0.697	–	–	–	–
Cc1c(-c2nc3ccc(-c4cccc(C(F)F)c4)cn3n2)[nH]c2ccccc2c1=O [Compound 107]	58,92%	76,98%	3.32	–	–	–	–
Cc1c(-c2nc3ccc(-c4ccc(C(F)(F)F)c(F)c4)cn3n2)[nH]c2ccccc2c1=O [Compound 123]	50,75%	–	4.14	–	–	–	–
Cc1c(-c2nc3ccc(-c4ccc(F)nc4)cn3n2)[nH]c2ccccc2c1=O [Compound 61]	108%	155.2%	–	–	–	–	–
